According to the supplement of paper PMC10307832:

How the values were obtained:
Assay in all cases: relative viability (nuclei count vs DMSO), 5 days (fraction); higher = more cells survive
BI-2536 + Vorinostat = compound: CC[C@@H]1C(=O)N(C)c2cnc(Nc3ccc(C(=O)NC4CCN(C)CC4)cc3OC)nc2N1C1CCCC1 [BI-2536] + O=C(CCCCCCC(=O)Nc1ccccc1)NO [Vorinostat] (partner 1 µM)
How it was run: (§1)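 Cells from lung cancer lines were seeded into 1536-well plates and, one day later, dosed by pin tool. Treatments were either a single drug or a fixed dose of an anchor drug with five library-drug doses (not always all listed) in √10 steps. After 5 days, nuclei were stained in a one-step fixation (final 0.05% Triton X-100, 1% formaldehyde, 1 ug/ml Hoechst) and counted on 4× images, and relative viability is the treated-to-vehicle nuclei ratio, as the median of duplicate plates.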

[1] = compound: CC1CC(=O)N(C2=CN=C(N=C2N1C3CCCC3)NC4=C(C=C(C=C4)C(=O)NC5CCN(CC5)C)OC)C [NPK76-II-72-1] + CC(=O)Nc1cccc(-n2c(=O)n(C3CC3)c(=O)c3c(Nc4ccc(I)cc4F)n(C)c(=O)c(C)c32)c1 [Trametinib] (partner 0.02 µM)
How it was run: as §1

[2] = compound: CC1CC(=O)N(C2=CN=C(N=C2N1C3CCCC3)NC4=C(C=C(C=C4)C(=O)NC5CCN(CC5)C)OC)C [NPK76-II-72-1] + Cc1nc(NC(=O)N2CCC[C@H]2C(N)=O)sc1-c1ccnc(C(C)(C)C(F)(F)F)c1 [Alpelisib] (partner 2 µM)
How it was run: as §1

[3] = compound: CC1CC(=O)N(C2=CN=C(N=C2N1C3CCCC3)NC4=C(C=C(C=C4)C(=O)NC5CCN(CC5)C)OC)C [NPK76-II-72-1] + N=C(N)NC(=N)NCCc1ccccc1 [Phenformin] (partner 250 µM)
How it was run: as §1

Cell Line | relative viability (BI-2536 + Vorinostat; first compound 0.01 µM) | relative viability (BI-2536 + Vorinostat; first compound 0.03162 µM) | relative viability (BI-2536 + Vorinostat; first compound 0.1 µM) | relative viability (BI-2536 + Vorinostat; first compound 0.3162 µM) | relative viability (BI-2536 + Vorinostat; first compound 1 µM) | relative viability ([1]; first compound 0.01 µM) | relative viability ([1]; first compound 0.03162 µM) | relative viability ([1]; first compound 0.1 µM) | relative viability ([1]; first compound 0.3162 µM) | relative viability ([1]; first compound 1 µM) | relative viability ([2]; first compound 0.01 µM) | relative viability ([2]; first compound 0.03162 µM) | relative viability ([2]; first compound 0.1 µM) | relative viability ([2]; first compound 0.3162 µM) | relative viability ([2]; first compound 1 µM) | relative viability ([3]; first compound 0.01 µM) | relative viability ([3]; first compound 0.03162 µM) | relative viability ([3]; first compound 0.1 µM) | relative viability ([3]; first compound 0.3162 µM) | relative viability ([3]; first compound 1 µM)
201T | 0.967 | 0.98 | 0.841 | 0.254 | 0.31 | 0.716 | 0.701 | 0.709 | 0.689 | 0.716 | 1.02 | 1.04 | 1.02 | 0.999 | 1.09 | 0.423 | 0.461 | 0.407 | 0.461 | 0.433
A549 | – | – | – | – | – | – | – | – | – | – | 0.84 | 0.824 | 0.889 | 0.716 | 0.769 | – | 0.136 | 0.222 | 0.155 | 0.192
A-427 | 0.871 | 0.859 | 0.296 | 0.19 | 0.165 | 0.732 | 0.743 | 0.812 | 0.691 | 0.812 | 1.08 | 1.1 | 1.02 | 1.09 | 1.03 | 0.263 | 0.309 | 0.341 | 0.295 | 0.397
ABC-1 | 1.22 | 1.06 | 0.613 | 0.418 | 0.51 | – | – | – | – | – | 0.839 | 0.982 | 1.11 | 0.953 | 1 | 0.264 | 0.223 | 0.202 | 0.258 | 0.28
BEN | 0.574 | 0.452 | 0.412 | 0.386 | 0.38 | 1.15 | 0.945 | 1.13 | 0.854 | 1.08 | 0.967 | 1.05 | 1.01 | 1.02 | 1.09 | 0.229 | 0.228 | 0.276 | 0.245 | 0.253
CAL-12T | 0.817 | 0.695 | 0.278 | 0.147 | 0.129 | 0.325 | 0.346 | 0.362 | 0.306 | 0.37 | 1.13 | 1.15 | 0.877 | 1.03 | 1.27 | 0.563 | 0.56 | 0.562 | 0.554 | 0.619
COR-L23 | 0.438 | 0.281 | 0.135 | 0.0945 | 0.0882 | 0.588 | 0.679 | 0.671 | 0.497 | 0.65 | 0.638 | 0.821 | 0.815 | 0.815 | 0.822 | 0.397 | 0.453 | 0.491 | 0.434 | 0.438
COR-L 105 | 0.959 | 0.79 | 0.52 | 0.349 | 0.334 | 0.43 | 0.456 | 0.491 | 0.424 | 0.435 | 0.908 | 0.907 | 1.13 | 0.905 | 1.13 | 0.491 | 0.541 | 0.409 | 0.474 | 0.551
Calu-6 | – | – | – | – | – | – | – | – | – | – | 0.952 | 1.03 | 1.05 | 0.972 | 1.14 | – | – | – | – | –
ChaGo-K-1 | 0.764 | 0.749 | 0.265 | 0.182 | 0.196 | 0.876 | 0.98 | 0.868 | 0.897 | 0.875 | – | – | – | – | – | 0.472 | 0.575 | 0.544 | 0.476 | 0.478
EBC-1 | – | – | – | – | – | – | – | – | – | – | 0.927 | 0.931 | 0.828 | 0.836 | 0.906 | – | – | – | – | –
EKVX | 0.875 | 0.729 | 0.676 | 0.407 | 0.208 | 0.359 | 0.32 | 0.367 | – | 0.384 | 0.796 | 0.897 | 0.884 | 0.716 | 1.1 | 0.221 | 0.237 | 0.225 | 0.147 | 0.252
EMC-BAC-2 | 0.468 | 0.416 | 0.171 | 0.144 | 0.131 | 0.836 | 0.955 | 0.845 | 0.81 | 0.952 | 0.723 | 0.764 | 0.786 | 0.668 | 0.774 | 0.521 | 0.546 | 0.54 | 0.55 | 0.634
EPLC-272H | 0.339 | 0.126 | 0.0766 | 0.112 | 0.0972 | 0.257 | 0.246 | 0.252 | 0.296 | 0.284 | 0.854 | 0.88 | 0.964 | 0.928 | 0.88 | 0.304 | – | 0.259 | 0.229 | 0.343
H3255 | 0.736 | 0.786 | 0.447 | 0.519 | 0.306 | 0.675 | 0.603 | 0.637 | – | 0.587 | 0.683 | 0.663 | 0.721 | – | 0.934 | 0.365 | 0.326 | 0.376 | 0.31 | 0.37
HARA | 0.626 | 0.511 | 0.422 | 0.0897 | 0.108 | 0.83 | 0.864 | 0.619 | – | 0.856 | 0.783 | 0.975 | 0.822 | 0.523 | 0.983 | 0.419 | 0.408 | 0.486 | 0.434 | 0.509
HCC-15 | 0.675 | 0.769 | 0.615 | 0.137 | 0.141 | 0.35 | 0.329 | 0.342 | 0.357 | 0.393 | 0.828 | 0.965 | 0.875 | 0.919 | 0.97 | 0.456 | 0.564 | 0.462 | 0.444 | 0.494
HCC-44 | 1.19 | 1.01 | 0.847 | 0.346 | 0.278 | 1.06 | 1.27 | 0.95 | 0.992 | 0.988 | 0.771 | 0.854 | 0.76 | 0.789 | 0.809 | 0.201 | 0.176 | 0.22 | 0.212 | 0.271
HCC-78 | 0.421 | 0.49 | 0.379 | 0.268 | 0.27 | 0.711 | 0.704 | 0.575 | 0.828 | 0.742 | – | 0.402 | 0.334 | – | 0.337 | 0.695 | 0.684 | 0.684 | 0.692 | 0.665
